Source: ChEMBL document CHEMBL4507267 (2021)

Experiments:
[1] = biological target: Serine/threonine-protein kinase DCLK1 (Homo sapiens) (UniProt O15075); conditions: Compound concentration 1000.0 nM
[2] = biological target: Bone morphogenetic protein receptor type-2 (Homo sapiens) (UniProt Q13873); conditions: Compound concentration 1000.0 nM
[3] = test system: Epidermal growth factor receptor (Homo sapiens), P00533 [T790M]; conditions: Compound concentration 1000.0 nM
[4] = biological target: Fibroblast growth factor receptor 3 (Homo sapiens) (UniProt P22607); conditions: Compound concentration 1000.0 nM
[5] = biological target: Cyclin-dependent kinase 2 homolog (Plasmodium falciparum (isolate 3D7)) (UniProt P61075); conditions: Compound concentration 1000.0 nM
[6] = biological target: Ephrin type-B receptor 3 (Homo sapiens) (UniProt P54753); conditions: Compound concentration 1000.0 nM
Chain of Ephrin type-B receptor 3 (Homo sapiens) (P54753 whole entry): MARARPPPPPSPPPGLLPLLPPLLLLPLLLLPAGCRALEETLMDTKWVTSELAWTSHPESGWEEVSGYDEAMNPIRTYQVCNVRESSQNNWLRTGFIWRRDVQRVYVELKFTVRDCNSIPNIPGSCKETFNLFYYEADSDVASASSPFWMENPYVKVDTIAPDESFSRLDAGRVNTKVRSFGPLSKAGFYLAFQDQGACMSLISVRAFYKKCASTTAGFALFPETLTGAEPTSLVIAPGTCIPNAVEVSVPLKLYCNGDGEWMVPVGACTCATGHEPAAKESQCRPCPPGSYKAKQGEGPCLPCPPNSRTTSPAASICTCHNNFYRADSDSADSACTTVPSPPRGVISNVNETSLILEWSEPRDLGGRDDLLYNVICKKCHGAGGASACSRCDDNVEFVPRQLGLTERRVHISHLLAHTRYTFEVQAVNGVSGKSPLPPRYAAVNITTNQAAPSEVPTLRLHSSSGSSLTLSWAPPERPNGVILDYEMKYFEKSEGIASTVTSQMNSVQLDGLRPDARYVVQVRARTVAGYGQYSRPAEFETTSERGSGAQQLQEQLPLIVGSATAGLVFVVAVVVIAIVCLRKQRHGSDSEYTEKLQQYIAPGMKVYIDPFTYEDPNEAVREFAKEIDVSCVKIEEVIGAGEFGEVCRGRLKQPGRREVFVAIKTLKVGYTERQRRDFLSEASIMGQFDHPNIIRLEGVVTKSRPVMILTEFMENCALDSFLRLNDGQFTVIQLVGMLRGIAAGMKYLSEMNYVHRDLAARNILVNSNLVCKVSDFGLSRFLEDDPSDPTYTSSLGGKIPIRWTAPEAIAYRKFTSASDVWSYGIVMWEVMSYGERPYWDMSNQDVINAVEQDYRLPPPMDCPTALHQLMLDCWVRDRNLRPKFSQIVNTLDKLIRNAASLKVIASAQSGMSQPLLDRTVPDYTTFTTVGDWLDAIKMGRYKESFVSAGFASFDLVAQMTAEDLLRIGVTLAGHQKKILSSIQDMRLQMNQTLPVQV

[7] = biological target: Myotonin-protein kinase (Homo sapiens) (UniProt Q09013); conditions: Compound concentration 1000.0 nM
Chain of Myotonin-protein kinase (Homo sapiens) (Q09013 whole entry): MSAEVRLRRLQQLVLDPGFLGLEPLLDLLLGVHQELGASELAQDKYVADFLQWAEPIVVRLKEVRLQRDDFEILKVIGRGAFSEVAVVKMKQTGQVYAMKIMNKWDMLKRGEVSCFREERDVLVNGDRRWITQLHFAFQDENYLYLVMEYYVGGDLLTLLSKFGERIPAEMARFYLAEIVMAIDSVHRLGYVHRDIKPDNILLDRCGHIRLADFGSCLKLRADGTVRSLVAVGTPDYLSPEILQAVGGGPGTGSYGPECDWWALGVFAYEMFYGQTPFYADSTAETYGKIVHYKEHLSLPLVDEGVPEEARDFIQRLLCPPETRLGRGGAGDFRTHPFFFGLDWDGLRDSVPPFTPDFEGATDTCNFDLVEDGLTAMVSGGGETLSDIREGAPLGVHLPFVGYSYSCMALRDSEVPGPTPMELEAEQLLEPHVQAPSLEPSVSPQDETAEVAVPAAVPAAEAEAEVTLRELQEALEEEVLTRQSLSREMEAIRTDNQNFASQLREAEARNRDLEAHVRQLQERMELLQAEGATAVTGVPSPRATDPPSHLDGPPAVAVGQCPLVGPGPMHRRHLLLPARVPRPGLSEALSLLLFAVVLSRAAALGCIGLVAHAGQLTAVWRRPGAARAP

[8] = biological target: Dual specificity mitogen-activated protein kinase kinase 6 (Homo sapiens) (UniProt P52564); conditions: Compound concentration 1000.0 nM
Chain of Dual specificity mitogen-activated protein kinase kinase 6 (Homo sapiens) (P52564 whole entry): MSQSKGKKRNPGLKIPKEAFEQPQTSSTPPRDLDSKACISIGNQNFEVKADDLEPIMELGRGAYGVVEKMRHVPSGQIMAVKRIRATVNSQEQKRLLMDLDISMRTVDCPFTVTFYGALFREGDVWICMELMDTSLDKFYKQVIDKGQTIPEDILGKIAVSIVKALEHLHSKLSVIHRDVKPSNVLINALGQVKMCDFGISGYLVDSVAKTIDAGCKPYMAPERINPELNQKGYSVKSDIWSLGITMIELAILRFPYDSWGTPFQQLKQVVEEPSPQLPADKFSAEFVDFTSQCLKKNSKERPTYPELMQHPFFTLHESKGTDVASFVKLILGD

[9] = biological target: Cyclin-dependent kinase 9 (Homo sapiens) (UniProt P50750); conditions: Compound concentration 1000.0 nM
[10] = biological target: Ribosomal protein S6 kinase alpha-6 (Homo sapiens) (UniProt Q9UK32); conditions: Compound concentration 1000.0 nM
[11] = test system: Tyrosine-protein kinase ABL1 (Homo sapiens), P00519 [Y253F]; conditions: Compound concentration 1000.0 nM
[12] = biological target: Tyrosine-protein kinase JAK2 (Homo sapiens) (UniProt O60674); conditions: Compound concentration 1000.0 nM
[13] = biological target: Casein kinase I isoform epsilon (Homo sapiens) (UniProt P49674); conditions: Compound concentration 1000.0 nM
Chain of Casein kinase I isoform epsilon (Homo sapiens) (P49674 whole entry, looked up, canonical isoform): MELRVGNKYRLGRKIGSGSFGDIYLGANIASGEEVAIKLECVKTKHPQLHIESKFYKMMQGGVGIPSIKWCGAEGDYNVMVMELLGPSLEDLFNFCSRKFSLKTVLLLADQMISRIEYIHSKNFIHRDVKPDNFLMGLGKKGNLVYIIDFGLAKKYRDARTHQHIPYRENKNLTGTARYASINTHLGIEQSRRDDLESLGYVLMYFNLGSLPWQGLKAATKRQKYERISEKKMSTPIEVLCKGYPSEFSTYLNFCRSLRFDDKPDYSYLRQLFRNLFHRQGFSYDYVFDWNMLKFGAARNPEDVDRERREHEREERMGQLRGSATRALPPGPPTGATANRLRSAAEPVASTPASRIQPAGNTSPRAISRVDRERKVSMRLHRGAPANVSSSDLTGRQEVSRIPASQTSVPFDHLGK

[14] = biological target: Cyclin-dependent kinase 2 (Homo sapiens) (UniProt P24941); conditions: Compound concentration 1000.0 nM
[15] = biological target: Inhibitor of nuclear factor kappa-B kinase subunit epsilon (Homo sapiens) (UniProt Q14164); conditions: Compound concentration 1000.0 nM
[16] = biological target: Myosin light chain kinase, smooth muscle (Homo sapiens) (UniProt Q15746); conditions: Compound concentration 1000.0 nM
[17] = biological target: Cyclin-dependent kinase 17 (Homo sapiens) (UniProt Q00537); conditions: Compound concentration 1000.0 nM
[18] = test system: Phosphatidylinositol 4,5-bisphosphate 3-kinase catalytic subunit alpha isoform (Homo sapiens), P42336 [M1043I]; conditions: Compound concentration 1000.0 nM
[19] = biological target: Serine/threonine-protein kinase Sgk2 (Homo sapiens) (UniProt Q9HBY8); conditions: Compound concentration 1000.0 nM
[20] = biological target: Serine/threonine-protein kinase Nek3 (Homo sapiens) (UniProt P51956); conditions: Compound concentration 1000.0 nM
Chain of Serine/threonine-protein kinase Nek3 (Homo sapiens) (P51956 whole entry): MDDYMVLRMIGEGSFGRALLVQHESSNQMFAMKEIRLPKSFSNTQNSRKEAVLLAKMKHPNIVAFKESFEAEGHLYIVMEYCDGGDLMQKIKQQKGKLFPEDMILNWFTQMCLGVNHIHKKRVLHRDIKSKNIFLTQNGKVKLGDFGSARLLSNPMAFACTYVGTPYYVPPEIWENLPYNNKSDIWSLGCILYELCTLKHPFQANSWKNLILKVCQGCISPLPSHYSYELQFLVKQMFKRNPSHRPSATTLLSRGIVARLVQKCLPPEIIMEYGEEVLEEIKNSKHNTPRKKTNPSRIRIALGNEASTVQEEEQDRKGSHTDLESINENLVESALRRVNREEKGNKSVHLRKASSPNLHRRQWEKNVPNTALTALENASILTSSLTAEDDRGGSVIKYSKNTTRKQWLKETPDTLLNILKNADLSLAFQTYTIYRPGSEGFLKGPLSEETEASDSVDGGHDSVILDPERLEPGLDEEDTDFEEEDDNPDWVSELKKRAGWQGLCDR

[21] = test system: Tyrosine-protein kinase ABL1 (Homo sapiens), P00519 [T315I]; conditions: Compound concentration 1000.0 nM
[22] = biological target: Insulin-like growth factor 1 receptor (Homo sapiens) (UniProt P08069); conditions: Compound concentration 1000.0 nM
[23] = biological target: cAMP-dependent protein kinase catalytic subunit beta (Homo sapiens) (UniProt P22694); conditions: Compound concentration 1000.0 nM
[24] = biological target: Tyrosine-protein kinase JAK1 (Homo sapiens) (UniProt P23458); conditions: Compound concentration 1000.0 nM
[25] = biological target: Receptor-interacting serine/threonine-protein kinase 4 (Homo sapiens) (UniProt P57078); conditions: Compound concentration 1000.0 nM
[26] = biological target: Mitogen-activated protein kinase 14 (Homo sapiens) (UniProt Q16539); conditions: Compound concentration 1000.0 nM
[27] = biological target: Calcium/calmodulin-dependent protein kinase type 1B (Homo sapiens) (UniProt Q6P2M8); conditions: Compound concentration 1000.0 nM
[28] = biological target: Vascular endothelial growth factor receptor 1 (Homo sapiens) (UniProt P17948); conditions: Compound concentration 1000.0 nM
[29] = biological target: Mast/stem cell growth factor receptor Kit (Homo sapiens) (UniProt P10721); conditions: Compound concentration 1000.0 nM
[30] = biological target: Cyclin-dependent kinase 19 (Homo sapiens) (UniProt Q9BWU1); conditions: Compound concentration 1000.0 nM
[31] = biological target: Serine/threonine-protein kinase N1 (Homo sapiens) (UniProt Q16512); conditions: Compound concentration 1000.0 nM
[32] = biological target: Serine/threonine-protein kinase ICK (Homo sapiens) (UniProt Q9UPZ9); conditions: Compound concentration 1000.0 nM
Chain of Serine/threonine-protein kinase ICK (Homo sapiens) (Q9UPZ9 whole entry): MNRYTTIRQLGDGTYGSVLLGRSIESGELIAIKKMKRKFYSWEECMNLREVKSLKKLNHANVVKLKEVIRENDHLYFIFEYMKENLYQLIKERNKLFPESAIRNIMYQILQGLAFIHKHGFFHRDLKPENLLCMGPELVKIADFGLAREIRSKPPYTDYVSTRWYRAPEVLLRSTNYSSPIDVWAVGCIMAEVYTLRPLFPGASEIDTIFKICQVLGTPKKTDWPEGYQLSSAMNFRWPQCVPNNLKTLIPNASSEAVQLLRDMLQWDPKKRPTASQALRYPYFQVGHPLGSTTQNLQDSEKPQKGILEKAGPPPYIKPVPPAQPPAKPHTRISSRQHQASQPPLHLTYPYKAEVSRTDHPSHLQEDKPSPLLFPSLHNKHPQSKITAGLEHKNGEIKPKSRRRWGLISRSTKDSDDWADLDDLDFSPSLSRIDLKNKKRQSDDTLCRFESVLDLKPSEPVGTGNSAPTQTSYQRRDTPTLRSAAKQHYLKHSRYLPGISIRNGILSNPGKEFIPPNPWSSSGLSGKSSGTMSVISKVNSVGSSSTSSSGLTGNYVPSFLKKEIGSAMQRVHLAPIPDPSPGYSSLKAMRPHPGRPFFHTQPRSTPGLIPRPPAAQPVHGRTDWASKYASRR

[33] = biological target: Ephrin type-A receptor 6 (Homo sapiens) (UniProt Q9UF33); conditions: Compound concentration 1000.0 nM
[34] = biological target: Alpha-2C adrenergic receptor (Homo sapiens) (UniProt P18825); conditions: Compound concentration 10.0 uM
Chain of Alpha-2C adrenergic receptor (Homo sapiens) (P18825 whole entry): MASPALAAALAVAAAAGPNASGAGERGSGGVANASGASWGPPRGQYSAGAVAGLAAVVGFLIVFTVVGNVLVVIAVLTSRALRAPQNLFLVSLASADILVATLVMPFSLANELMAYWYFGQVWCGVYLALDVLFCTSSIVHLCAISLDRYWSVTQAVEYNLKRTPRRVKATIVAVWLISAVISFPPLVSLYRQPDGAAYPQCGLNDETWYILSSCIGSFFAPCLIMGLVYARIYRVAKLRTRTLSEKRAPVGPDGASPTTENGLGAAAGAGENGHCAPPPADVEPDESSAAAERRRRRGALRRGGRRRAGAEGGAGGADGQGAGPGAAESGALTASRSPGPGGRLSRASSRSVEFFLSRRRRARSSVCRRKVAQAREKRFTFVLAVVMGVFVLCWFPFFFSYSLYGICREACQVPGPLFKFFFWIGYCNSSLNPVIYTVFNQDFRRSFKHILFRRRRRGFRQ

[35] = test system: ALK tyrosine kinase receptor (Homo sapiens), Q9UM73 [C1156Y]; conditions: Compound concentration 1000.0 nM
Histamine H2 receptor = Histamine H2 receptor (Homo sapiens, UniProt P25021); conditions: Compound concentration 10.0 uM
[36] = biological target: Calcium/calmodulin-dependent protein kinase kinase 1 (Homo sapiens) (UniProt Q8N5S9); conditions: Compound concentration 1000.0 nM
[37] = biological target: Fibroblast growth factor receptor 4 (Homo sapiens) (UniProt P22455); conditions: Compound concentration 1000.0 nM
Chain of Fibroblast growth factor receptor 4 (Homo sapiens) (P22455 22-802 limits assumed): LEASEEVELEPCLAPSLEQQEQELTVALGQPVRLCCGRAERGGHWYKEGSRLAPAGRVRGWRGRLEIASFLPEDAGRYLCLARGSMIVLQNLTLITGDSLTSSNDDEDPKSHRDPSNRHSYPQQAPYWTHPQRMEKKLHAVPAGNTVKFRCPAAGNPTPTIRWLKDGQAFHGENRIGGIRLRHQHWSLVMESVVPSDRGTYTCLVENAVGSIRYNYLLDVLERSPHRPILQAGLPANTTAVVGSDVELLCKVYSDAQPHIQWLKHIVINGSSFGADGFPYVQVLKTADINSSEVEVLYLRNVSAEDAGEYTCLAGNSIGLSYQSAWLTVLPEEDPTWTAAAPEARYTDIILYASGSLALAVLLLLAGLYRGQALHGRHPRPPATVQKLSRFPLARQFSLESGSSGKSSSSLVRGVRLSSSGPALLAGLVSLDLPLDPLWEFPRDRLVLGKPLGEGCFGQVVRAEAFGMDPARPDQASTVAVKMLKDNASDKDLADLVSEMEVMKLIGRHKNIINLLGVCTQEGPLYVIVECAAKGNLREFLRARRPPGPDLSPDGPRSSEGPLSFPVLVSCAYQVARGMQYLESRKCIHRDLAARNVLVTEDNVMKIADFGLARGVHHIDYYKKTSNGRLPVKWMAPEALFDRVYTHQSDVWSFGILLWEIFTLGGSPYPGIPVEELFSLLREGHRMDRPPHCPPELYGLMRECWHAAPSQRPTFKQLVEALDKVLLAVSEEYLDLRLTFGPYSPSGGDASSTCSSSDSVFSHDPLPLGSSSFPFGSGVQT

[38] = biological target: SRSF protein kinase 1 (Homo sapiens) (UniProt Q96SB4); conditions: Compound concentration 1000.0 nM
[39] = biological target: Mitogen-activated protein kinase kinase kinase kinase 2 (Homo sapiens) (UniProt Q12851); conditions: Compound concentration 1000.0 nM
[40] = biological target: Serine/threonine-protein kinase NIM1 (Homo sapiens) (UniProt Q8IY84); conditions: Compound concentration 1000.0 nM
[41] = biological target: Mitogen-activated protein kinase 7 (Homo sapiens) (UniProt Q13164); conditions: Compound concentration 1000.0 nM
[42] = biological target: Serine/threonine-protein kinase TBK1 (Homo sapiens) (UniProt Q9UHD2); conditions: Compound concentration 1000.0 nM
[43] = biological target: NUAK family SNF1-like kinase 2 (Homo sapiens) (UniProt Q9H093); conditions: Compound concentration 1000.0 nM
[44] = biological target: Serine/threonine-protein kinase WNK2 (Homo sapiens) (UniProt Q9Y3S1); conditions: Compound concentration 1000.0 nM
[45] = biological target: Aurora kinase A (Homo sapiens) (UniProt O14965); conditions: Compound concentration 1000.0 nM

Cc1c(NC(=O)c2cc(C(N)=O)nc3cc(F)ccc23)c(C(F)(F)F)nn1Cc1ccc(C(C)(C)C)cc1 [BAY-588]
inactive: residual activity [1] 91% | residual activity [2] 100% | residual activity [3] 100% | residual activity [4] 92% | residual activity [5] 100% | residual activity [6] 100% | residual activity [7] 100% | residual activity [8] 92% | residual activity [9] 100% | residual activity [10] 100% | residual activity [11] 100% | residual activity [12] 100% | residual activity [13] 91% | residual activity [14] 88% | residual activity [15] 100% | residual activity [16] 97% | residual activity [17] 100% | residual activity [18] 80% | residual activity [19] 100% | residual activity [20] 100% | residual activity [21] 100% | residual activity [22] 100% | residual activity [23] 100% | residual activity [24] 100% | residual activity [25] 100% | residual activity [26] 100% | residual activity [27] 100% | residual activity [28] 100% | residual activity [29] 100% | residual activity [30] 100% | residual activity [31] 100% | residual activity [32] 61% | residual activity [33] 100% | inhibition [34] 2.11% | residual activity [35] 100% | inhibition (Histamine H2 receptor) 32.4% | residual activity [36] 98% | residual activity [37] 100% | residual activity [38] 100% | residual activity [39] 100% | residual activity [40] 100% | residual activity [41] 100% | residual activity [42] 95% | residual activity [43] 100% | residual activity [44] 100% | residual activity [45] 100%

Cc1c(NC(=O)c2cc(C(N)=O)nc3cc(F)ccc23)c(C(F)(F)F)nn1Cc1ccc(C#N)cc1 [BAY-876]
inactive: residual activity [1] 85% | residual activity [2] 89% | residual activity [3] 100% | residual activity [4] 99% | residual activity [5] 91% | residual activity [6] 96% | residual activity [7] 92% | residual activity [8] 100% | residual activity [9] 86% | residual activity [10] 78% | residual activity [11] 80% | residual activity [12] 75% | residual activity [13] 100% | residual activity [14] 91% | residual activity [15] 75% | residual activity [16] 65% | residual activity [17] 92% | residual activity [18] 91% | residual activity [19] 80% | residual activity [20] 74% | residual activity [21] 100% | residual activity [22] 100% | residual activity [23] 93% | residual activity [24] 86% | residual activity [25] 92% | residual activity [26] 91% | residual activity [27] 64% | residual activity [28] 98% | residual activity [29] 72% | residual activity [30] 82% | residual activity [31] 98% | residual activity [32] 100% | residual activity [33] 87% | inhibition [34] -0.745% | residual activity [35] 98% | inhibition (Histamine H2 receptor) 30.4% | residual activity [36] 97% | residual activity [37] 100% | residual activity [38] 83% | residual activity [39] 88% | residual activity [40] 91% | residual activity [41] 95% | residual activity [42] 70% | residual activity [43] 83% | residual activity [44] 87% | residual activity [45] 89%
